Measured values: ChEMBL document CHEMBL1129635, “Evaluation of selected chemotypes in coupled cellular and molecular target-based screens identifies novel HIV-1 zinc finger inhibitors” (J Med Chem, 1996)
Calls of active or inactive are those of the source. The rule behind the calls is not given here.

What was measured:
[1] = tested on: Human immunodeficiency virus 1; experiment: Tested for cytoprotection against production of HIV-1 p24.; assay type: functional, organism-based
[2] = tested on: Human immunodeficiency virus 1; experiment: Effective concentration required for 50% production of p24 production.; assay type: functional, organism-based
[3] = tested on: Human immunodeficiency virus 1; experiment: Compound was tested for inhibition of HIV-1 replication in human T-cell by using XTT assay; Moderately active; assay type: functional, organism-based
[4] = tested on: Human immunodeficiency virus 1; experiment: Tested against zinc finger of the recombinant HIV-1 p7NC protein by using Trp residue for fluorometric measurements; assay type: functional
[5] = tested on: Human immunodeficiency virus 1; experiment: Inhibition of HIV-1 replication in human T-cell by using XTT assay.; assay type: functional
[6] = tested on: Human immunodeficiency virus 1; experiment: Tested against zinc finger of the recombinant HIV-1 p7NC toluenesulfonamide) residue for fluorometric measurements; assay type: functional
[7] = tested on: Human immunodeficiency virus 1; experiment: Compound was tested for effective concentration required for 50% production of p24 production; NA = Not active; assay type: functional, organism-based
T-cell line = experiment: Compound was tested for inhibition of HIV-1 replication in human T-cell by using XTT assay; Active; assay type: functional, cell-based

Structure (SMILES)	IC50 [1] [µM]	EC50 [2] [µM]	Activity [3]	Decrease in RFU [4] [%]	TI50 [5]	increase in RFU [6] [%]	EC50 [7]	Activity (T-cell line)
COC(=S)SSC(=S)N(CC/N=C(/S)SSC(=S)OC)CC/N=C(\S)SSC(=S)OC	> 100	> 100	Weak activity	37.7	2.6	10.6	–	–
Cc1cc(C)c(C(=O)O)c(SSc2cc(C)cc(C)c2C(=O)O)c1	–	–	Weak activity	–	2.7	–	Not Active	–
Cc1cc(S(=O)(=O)C2=NC(Nc3ccccc3)NN2)c(SSc2cc(Cl)c(C)cc2S(=O)(=O)C2=NC(Nc3ccccc3)NN2)cc1Cl (stereo not given)	> 100	80	Weak activity	92.1	15.7	1.5	–	–
CC(=O)NC1CN=C(SSC2=NCC(NC(C)=O)S2)S1 (stereo not given)	> 100	> 100	Weak activity	77.8	>5.3	8	–	–
CC1(C)CC2=NC(SSC3=C(C#N)C(c4ccc(Br)cc4)C4=C(O)CC(C)(C)CC4=N3)=C(C#N)C(c3ccc(Br)cc3)C2=C(O)C1 (stereo not given)	> 100	> 100	Weak activity	24.8	3.4	0.3	–	–
COc1cc(SSc2cc(OC)cc([N+](=O)[O-])c2N)c(N)c([N+](=O)[O-])c1	> 100	7.5	Weak activity	80.5	8.5	0	–	–
Nc1cc(S(N)(=O)=O)ccc1SSc1ccc(S(N)(=O)=O)cc1N	100	> 100	Weak activity	81.8	14.9	24.4	–	–
O=S(=O)(SC1=NCCN1)c1ccccc1	> 100	37.2	Weak activity	76.1	4.3	15.7	–	–
O=C(N/N=C\c1ccc(Cl)cc1Cl)c1ccccc1SSc1ccccc1C(=O)N/N=C\c1ccc(Cl)cc1Cl	> 100	3.5	–	31.3	>15.9	1.6	–	Active
O=C(O)c1cccc(SS(=O)(=O)c2cccc(C(=O)O)c2)c1	> 100	71	Weak activity	91.2	13.7	21.1	–	–
NC(=O)CSSCC(N)=O	> 100	> 100	Weak activity	2.1	6.5	1.2	–	–
CC1(C)CC2=NC(SSC3=C(C#N)C(c4ccc(F)cc4)C4=C(O)CC(C)(C)CC4=N3)=C(C#N)C(c3ccc(F)cc3)C2=C(O)C1 (stereo not given)	> 100	> 100	Weak activity	78.1	3.2	0.3	–	–
Nc1cc(C(=O)O)ccc1SSc1ccc(C(=O)O)cc1N	> 100	> 100	Weak activity	79.3	>6.4	10.9	–	–
O=C(O)c1ccccc1SSc1ccccc1C(=O)O	> 100	57.5	Weak activity	6	>1.7	9.8	–	–
Cc1cc(C(=O)O)c(C)cc1SSc1cc(C)c(C(=O)O)cc1C	> 100	32	Weak activity	76.1	3.6	15.7	–	–
NNC(=O)c1ccccc1SSc1ccccc1C(=O)NN	96	21	Weak activity	80.9	5	28.5	–	–
Nc1ccc(S(N)(=O)=O)cc1SSc1cc(S(N)(=O)=O)ccc1N	97	> 100	Weak activity	52.1	>14.2	26	–	–
NS(=O)(=O)c1ccc(SSc2ccc(S(N)(=O)=O)cc2[N+](=O)[O-])c([N+](=O)[O-])c1	–	–	Weak activity	–	>5.8	–	–	–
O=C(O)Cc1ccc(SSc2ccc(CC(=O)O)cc2)cc1	> 100	> 100	Weak activity	51.5	>8.7	10.6	–	–
N=C(N)Nc1ccccc1SSc1ccccc1N=C(N)N	> 100	10	–	31.3	32	1.6	–	Active
CNCCSS(=O)(=O)CCNC	–	–	Weak activity	–	>1.8	–	–	–
CC(=O)NCCSS(=O)(=O)CCCCS(=O)(=O)SCCNC(C)=O	> 100	> 100	Weak activity	82.5	>1.6	32.8	–	–
COS(=O)CCOC(=O)c1ccccc1SSc1ccccc1C(=O)OCCS(=O)OC (stereo not given)	–	–	Weak activity	–	>2.1	–	Not Active	–
O=C(O)c1ccc(SSc2ccc(C(=O)O)cc2)cc1	> 100	> 100	Weak activity	62.5	>1.6	22.3	–	–
